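In this assay, cells in 96-well plates receive the compound at five concentrations for 48 hours. Endpoints are linearly interpolated between the surrounding concentrations. At the TGI there is no net growth.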
Legend:
Test in all cases: NCI tumour cell line growth inhibition, 48 h
DLD-1 colon = system: DLD-1 colon
HCC-2998 colon = system: HCC-2998 colon
HL-60(TB) leukemia = system: HL-60(TB) leukemia
HCT-15 colon = system: HCT-15 colon
MALME-3M melanoma = system: MALME-3M melanoma
SNB-78 CNS = system: SNB-78 CNS
A498 renal = system: A498 renal
HCT-116 colon = system: HCT-116 colon
RPMI-8226 leukemia = system: RPMI-8226 leukemia
NCI-H460 lung = system: NCI-H460 lung
COLO 205 colon = system: COLO 205 colon
SK-OV-3 ovarian = system: SK-OV-3 ovarian
HOP-92 NSCLC = system: HOP-92 NSCLC
SNB-75 CNS = system: SNB-75 CNS
786-0 renal = system: 786-0 renal
SK-MEL-28 melanoma = system: SK-MEL-28 melanoma
HT29 colon = system: HT29 colon
NCI-H522 lung = system: NCI-H522 lung
A549 NSCLC = system: A549 NSCLC
SF-295 CNS = system: SF-295 CNS
DMS 273 small cell lung = system: DMS 273 small cell lung
M14 melanoma = system: M14 melanoma
RXF 393 renal = system: RXF 393 renal
SN12C renal = system: SN12C renal
XF 498 CNS = system: XF 498 CNS
OVCAR-5 ovarian = system: OVCAR-5 ovarian
UACC-257 melanoma = system: UACC-257 melanoma
CCRF-CEM leukemia = system: CCRF-CEM leukemia
KM12 colon = system: KM12 colon
CAKI-1 renal = system: CAKI-1 renal
SW-620 colon = system: SW-620 colon
DMS 114 small cell lung = system: DMS 114 small cell lung
SNB-19 CNS = system: SNB-19 CNS
LOX IMVI melanoma = system: LOX IMVI melanoma
NCI-H226 lung = system: NCI-H226 lung
HOP-62 NSCLC = system: HOP-62 NSCLC
SF-268 CNS = system: SF-268 CNS
SK-MEL-2 melanoma = system: SK-MEL-2 melanoma
SR leukemia = system: SR leukemia
MOLT-4 leukemia = system: MOLT-4 leukemia
NCI-H23 lung = system: NCI-H23 lung
TK-10 renal = system: TK-10 renal
U251 CNS = system: U251 CNS
ACHN renal = system: ACHN renal
KM20L2 colon = system: KM20L2 colon
OVCAR-4 ovarian = system: OVCAR-4 ovarian
HOP-18 NSCLC = system: HOP-18 NSCLC
LXFL 529 NSCLC = system: LXFL 529 NSCLC
SK-MEL-5 melanoma = system: SK-MEL-5 melanoma
RXF-631 renal = system: RXF-631 renal
UO-31 renal = system: UO-31 renal
OVCAR-3 ovarian = system: OVCAR-3 ovarian
M19-MEL melanoma = system: M19-MEL melanoma
IGROV1 ovarian = system: IGROV1 ovarian
EKVX NSCLC = system: EKVX NSCLC
SF-539 CNS = system: SF-539 CNS
K-562 leukemia = system: K-562 leukemia
UACC-62 melanoma = system: UACC-62 melanoma
OVCAR-8 ovarian = system: OVCAR-8 ovarian

O=[N+]([O-])c1nccn1COCCO
TGI (DLD-1 colon): > 100 µM
TGI (HCC-2998 colon): > 100 µM
TGI (HL-60(TB) leukemia): > 100 µM
TGI (HCT-15 colon): > 100 µM
TGI (MALME-3M melanoma): > 100 µM
TGI (SNB-78 CNS): > 100 µM
TGI (A498 renal): > 100 µM
TGI (HCT-116 colon): > 100 µM
TGI (RPMI-8226 leukemia): > 100 µM
TGI (NCI-H460 lung): > 100 µM
TGI (COLO 205 colon): > 100 µM
TGI (SK-OV-3 ovarian): > 100 µM
TGI (HOP-92 NSCLC): > 100 µM
TGI (SNB-75 CNS): > 100 µM
TGI (786-0 renal): > 100 µM
TGI (SK-MEL-28 melanoma): > 100 µM
TGI (HT29 colon): > 100 µM
TGI (NCI-H522 lung): > 100 µM
TGI (A549 NSCLC): > 100 µM
TGI (SF-295 CNS): > 100 µM
TGI (DMS 273 small cell lung): > 100 µM
TGI (M14 melanoma): > 100 µM
TGI (RXF 393 renal): > 100 µM
TGI (SN12C renal): > 100 µM
TGI (XF 498 CNS): > 100 µM
TGI (OVCAR-5 ovarian): > 100 µM
TGI (UACC-257 melanoma): > 100 µM
TGI (CCRF-CEM leukemia): > 100 µM
TGI (KM12 colon): > 100 µM
TGI (CAKI-1 renal): > 100 µM
TGI (SW-620 colon): > 100 µM
TGI (DMS 114 small cell lung): > 100 µM
TGI (SNB-19 CNS): > 100 µM
TGI (LOX IMVI melanoma): > 100 µM
TGI (NCI-H226 lung): > 100 µM
TGI (HOP-62 NSCLC): > 100 µM
TGI (SF-268 CNS): > 100 µM
TGI (SK-MEL-2 melanoma): > 100 µM
TGI (SR leukemia): > 100 µM
TGI (MOLT-4 leukemia): > 100 µM
TGI (NCI-H23 lung): > 100 µM
TGI (TK-10 renal): > 100 µM
TGI (U251 CNS): > 100 µM
TGI (ACHN renal): > 100 µM
TGI (KM20L2 colon): > 100 µM
TGI (OVCAR-4 ovarian): > 100 µM
TGI (HOP-18 NSCLC): 97.8 µM
TGI (LXFL 529 NSCLC): > 100 µM
TGI (SK-MEL-5 melanoma): > 100 µM
TGI (RXF-631 renal): > 100 µM

CC1=C(C(=O)CC(=O)C(=O)Nc2ccc(Cl)cc2C)Sc2ccccc2N1
TGI (DLD-1 colon): > 100 µM
TGI (HCC-2998 colon): > 100 µM
TGI (HL-60(TB) leukemia): > 100 µM
TGI (HCT-15 colon): > 100 µM
TGI (MALME-3M melanoma): > 100 µM
TGI (SNB-78 CNS): > 100 µM
TGI (A498 renal): > 100 µM
TGI (HCT-116 colon): > 100 µM
TGI (RPMI-8226 leukemia): > 100 µM
TGI (UO-31 renal): > 100 µM
TGI (NCI-H460 lung): > 100 µM
TGI (COLO 205 colon): > 100 µM
TGI (OVCAR-3 ovarian): > 100 µM
TGI (SK-OV-3 ovarian): > 100 µM
TGI (HOP-92 NSCLC): 74.7 µM
TGI (SNB-75 CNS): > 100 µM
TGI (786-0 renal): > 100 µM
TGI (SK-MEL-28 melanoma): > 100 µM
TGI (HT29 colon): > 100 µM
TGI (NCI-H522 lung): > 100 µM
TGI (A549 NSCLC): > 100 µM
TGI (M19-MEL melanoma): > 100 µM
TGI (SF-295 CNS): > 100 µM
TGI (DMS 273 small cell lung): > 100 µM
TGI (M14 melanoma): > 100 µM
TGI (RXF 393 renal): > 100 µM
TGI (SN12C renal): > 100 µM
TGI (XF 498 CNS): > 100 µM
TGI (IGROV1 ovarian): > 100 µM
TGI (OVCAR-5 ovarian): > 100 µM
TGI (EKVX NSCLC): > 100 µM
TGI (UACC-257 melanoma): > 100 µM
TGI (CCRF-CEM leukemia): > 100 µM
TGI (KM12 colon): > 100 µM
TGI (CAKI-1 renal): > 100 µM
TGI (SF-539 CNS): > 100 µM
TGI (SW-620 colon): > 100 µM
TGI (DMS 114 small cell lung): > 100 µM
TGI (SNB-19 CNS): > 100 µM
TGI (LOX IMVI melanoma): > 100 µM
TGI (K-562 leukemia): > 100 µM
TGI (HOP-62 NSCLC): > 100 µM
TGI (SF-268 CNS): > 100 µM
TGI (SK-MEL-2 melanoma): > 100 µM
TGI (UACC-62 melanoma): > 100 µM
TGI (MOLT-4 leukemia): > 77.1 µM
TGI (NCI-H23 lung): > 100 µM
TGI (TK-10 renal): > 100 µM
TGI (U251 CNS): > 100 µM
TGI (ACHN renal): > 100 µM
TGI (KM20L2 colon): > 100 µM
TGI (OVCAR-4 ovarian): > 100 µM
TGI (HOP-18 NSCLC): > 100 µM
TGI (LXFL 529 NSCLC): > 100 µM
TGI (SK-MEL-5 melanoma): > 100 µM
TGI (RXF-631 renal): > 100 µM
TGI (OVCAR-8 ovarian): > 100 µM
